Series [1] can be described thus: Solubility assay (kinetic solubility, PBS pH 7). The following applies: pH 7, aqueous buffer, kinetic from dmso stock, pH 7, PBS; read-out: Solubility. The series is classed as physicochemical. The method, boiled down:
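Std: 10 mM stock → 100 µM in ACN/MeOH/DMSO (10:80:10). Sol. [µM] = (sample peak area / std peak area) × std conc.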

Series [2] in a line: Experimental LogD (partition coefficient). The following applies: not stated, Partition Coeff LogD.
Series [3] is described as follows: Nanoclick permeability assay. An excerpt: Further, there have been several literature reports[18]–[20] that highlight that the combination of hydrophobic character and positive charge can result in mast cell degranulation (MCD), a potentially fatal condition[18]–[20]. […] The NanoClick assay[22] determines permeability of azide-labeled peptides by combining intracellular copper-free click chemistry with NanoBRET technology. Specifically, if an azido-peptide achieves cytosolic exposure, it will react with a cyclooctyne-decorated Halotag construct that is fused with nanoluciferase. This reaction blocks the click labelling of a subsequently added azido-labeled acceptor dye, thus decreasing the NanoBRET signal in a manner that is target-binding agnostic.
This assay was previously described in detail. The assay was performed in 384-well white assay plates (PerkinElmer CUSG03874) using assay-ready frozen cells that had been transiently transfected with the NanoLuc-HaloTag vector that were thawed at plated in complete media at a density of 6000 cells/ well and incubated at 37 °C 5% CO2 overnight. DIBAC-CA was diluted in assay buffer (OptiMem without phenol red + 1% FBS) and added to cells at a final concentration of 3 μM and incubated at 37 °C 5% CO2 for 1 h. Cells were subsequently centrifuged using a BlueWasher instrument (Blue Cat Bio) to remove the DIBAC-CA solution and washed two times with HBSS (Ca2 + , Mg2 + ). A volume of 30 μL of assay buffer was added back to cell plates. Peptides were serially diluted 4-fold in DMSO with a Hamilton Star apparatus and then delivered into assay plates with an acoustic liquid handler Labcyte ECHO (300 nl, 1% DMSO in-well concentration). After incubating cells with peptide for the desired time (4 or 18 h), the HaloTag ligand, NanoBret618-azide, was added to each well at a final concentration of 10 μM. […] Following addition of NanoBRET Nano-Glo Substrate, donor emission (450 nm) and acceptor emission (610 nm) were measured using an Envision instrument (PerkinElmer).

The next series has as its system HCT116 cells. The series is described as follows: Lactate dehydrogenase (LDH) release assay. The series is classed as cell-based. The method, boiled down: (§1)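 Geometric means of at least three independent biological runs are given for LDH release measured in HCT116 cells stably expressing a p53-driven β-lactamase reporter. Plating density was 8000 cells/well; DMSO in wells was 0.5%.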

The nature of series [4]: Lactate dehydrogenase (LDH) release assay. The class given is cell-based. The gist of the method: as §1
Where [5] appears, read: 0% FBS 4Hr, read-out: LDH: Cytotoxicity assay: EC50.
Setting [6] is: Nanoclick permeability assay EC50.
The mark [7] stands for this setting: 0% FBS 4Hr, read-out: LDH: Cytotoxicity assay EC50.
Setting [8] is: 10% FBS 16Hr, read-out: LDH: Cytotoxicity assay EC50.

Each structure is given as a SMILES string. ≈ marks a conversion by molar mass, not a printed value. Read-outs that look alike come from different tables or passages of the source. Positions of bridges follow the written chain, without caps; N, C: chain ends. Non-standard residues stand in square brackets, D forms with d. Residues, ends and D or L forms follow the SMILES beside them. Phe(4-SO3H) = N[C@@H](Cc1ccc(S(=O)(=O)O)cc1)C(=O)O; Lys(N3) = [N-]=[N+]=NCCCC[C@H](N)C(=O)O; R8 = C=CCCCCCC[C@@](C)(N)C(=O)O; Cba = N[C@@H](CC1CCC1)C(=O)O; S5 = C=CCCC[C@](C)(N)C(=O)O; βAla = NCCC(=O)O

In general, logD refers to lipophilicity at a set pH, counting ionised and neutral species. One may read the EC50 as the concentration that produces a half-maximal response. Turning to `CC(=O)N[C@@H](CCCCN=[N+]=[N-])C(=O)NCCC(=O)N[C@@H](CC(C)C)C(=O)N[C@H](C(=O)N[C@@H](Cc1ccccc1)C(=O)N[C@]1(C)CCCCCCC=CCCC[C@@](C)(C(=O)N[C@@H](CCC(=O)O)C(=O)N[C@@H](CC(N)=O)C(=O)N[C@@H](Cc2ccccc2)C(N)=O)NC(=O)[C@H](CC2CCC2)NC(=O)[C@H](CCC(N)=O)NC(=O)[C@H](C)NC(=O)[C@H](Cc2c[nH]c3ccccc23)NC(=O)[C@H](Cc2ccc(O)cc2)NC(=O)[C@H](CCC(=O)O)NC1=O)[C@@H](C)O` [MP-328] (Ac-[Lys(N3)][βAla]LTF[R8]EYWAQ[Cba][S5]ENF-NH2; staple 6-13), the solubility kinetic in series [1] is 108 µM (≈ 230 µg/mL). Also, the logD in series [2] amounted to 2.65. Moreover, the cell entry EC50 in series [3] came to 0.0663 µM. Moreover, the “LDH: Cytotoxicity assay: % Effect” value in the series with HCT116 cells (0% FBS 4Hr) was -1.88%. Besides, the EC50 in series [4] (setting [5]) was more than 50.6 µM.
For `CC(C)C[C@H](NC(=O)CCNC(=O)[C@@H](N)CCCCN=[N+]=[N-])C(=O)N[C@H](C(=O)N[C@@H](Cc1ccccc1)C(=O)N[C@]1(C)CCCCCCC=CCCC[C@@](C)(C(N)=O)NC(=O)[C@H](CC2CCC2)NC(=O)[C@H](CC(C)C)NC(=O)[C@H](CCC(N)=O)NC(=O)[C@H](Cc2c[nH]c3ccccc23)NC(=O)[C@H](Cc2ccc(O)cc2)NC(=O)[C@H](CCC(=O)O)NC1=O)[C@@H](C)O` [MP-329] (H-[Lys(N3)][βAla]LTF[R8]EYWQL[Cba][S5]-NH2; staple 6-13), the solubility kinetic in series [1] stood at 5 µM (≈ 8.71 µg/mL). This compound registered a logD in series [2] of 2.71. Besides, in series [3] (setting [6]), the cell entry EC50 worked out at 2.69 µM. The EC50 with HCT116 cells was 50.5 µM; in series [4] (LDH: Cytotoxicity assay: EC50) it was more than 50.7 µM.
Turning to `CC(=O)N[C@@H](CCCCN=[N+]=[N-])C(=O)NCCC(=O)N[C@@H](CC(=O)O)C(=O)N[C@H](C(=O)N[C@@H](Cc1ccccc1)C(=O)N[C@]1(C)CCCCCCC=CCCC[C@@](C)(C(=O)N[C@@H](CO)C(=O)N[C@@H](C)C(=O)N[C@@H](C)C(N)=O)NC(=O)[C@H](CC2CCC2)NC(=O)[C@H](CCC(N)=O)NC(=O)[C@H](CC(=O)O)NC(=O)[C@H](Cc2c[nH]c3ccccc23)NC(=O)[C@H](Cc2ccc(O)cc2)NC(=O)[C@H](CC(=O)O)NC1=O)[C@@H](C)O` [MP-495, azide-ATSP-7041 (L1D, E5D, A8D)] (Ac-[Lys(N3)][βAla]DTF[R8]DYWDQ[Cba][S5]SAA-NH2; staple 6-13), the solubility kinetic in series [1] came to 78.7 µM (≈ 158 µg/mL). Besides, the logD in series [2] was 1.93. For the same compound, the cell entry EC50 in series [3] is 0.327 µM. In addition, in the series on HCT116 cells (0% FBS 4Hr), the “LDH: Cytotoxicity assay: % Effect” value came out at 1.328%. Further, the EC50 in series [4] (setting [5]) was more than 50.6 µM.
For the compound `CC(=O)N[C@@H](CCC(=O)O)C(=O)N[C@@H](CCC(=O)O)C(=O)N[C@@H](CCC(=O)O)C(=O)N[C@@H](CCCCN=[N+]=[N-])C(=O)NCCC(=O)N[C@@H](CC(C)C)C(=O)N[C@H](C(=O)N[C@@H](Cc1ccccc1)C(=O)N[C@]1(C)CCCCCCC=CCCC[C@@](C)(C(=O)N[C@@H](CO)C(=O)N[C@@H](C)C(=O)N[C@@H](C)C(N)=O)NC(=O)[C@H](CC2CCC2)NC(=O)[C@H](CCC(N)=O)NC(=O)[C@H](C)NC(=O)[C@H](Cc2c[nH]c3ccccc23)NC(=O)[C@H](Cc2ccc(O)cc2)NC(=O)[C@H](CCC(=O)O)NC1=O)[C@@H](C)O` [MP-617], the solubility kinetic in series [1] was determined as 81.5 µM (≈ 192 µg/mL). For the same compound, the logD in series [2] is 2.09. For the same compound, the cell entry EC50 in series [3] (setting [6]) worked out at 0.842 µM. Besides, in the series with HCT116 cells, the “LDH: Cytotoxicity assay: % Effect” value is given as -1.09%. Further, the EC50 in series [4] (LDH: Cytotoxicity assay: EC50) is more than 50.6 µM.
With `CC(=O)N[C@@H](CCC(=O)O)C(=O)N[C@@H](CCC(=O)O)C(=O)N[C@@H](CCC(=O)O)C(=O)N[C@@H](CCCCN=[N+]=[N-])C(=O)NCCC(=O)N[C@@H](CC(C)C)C(=O)N[C@H](C(=O)N[C@@H](Cc1ccccc1)C(=O)N[C@]1(C)CCCCCCC=CCCC[C@@](C)(C(=O)N[C@@H](CCC(=O)O)C(=O)N[C@@H](CCC(=O)O)C(=O)N[C@@H](CCC(=O)O)C(N)=O)NC(=O)[C@H](CC2CCC2)NC(=O)[C@H](CCC(N)=O)NC(=O)[C@H](C)NC(=O)[C@H](Cc2c[nH]c3ccccc23)NC(=O)[C@H](Cc2ccc(O)cc2)NC(=O)[C@H](CCC(=O)O)NC1=O)[C@@H](C)O` [MP-764] (Ac-EEE[Lys(N3)][βAla]LTF[R8]EYWAQ[Cba][S5]EEE-NH2; staple 9-16), the solubility kinetic in series [1] came out at 22 µM (≈ 55.3 µg/mL). In series [2], this compound showed a logD of 1.26. Further, the cell entry EC50 in series [3] (setting [6]) was 2.67 µM. For the same compound, in the series on HCT116 cells, the “LDH: Cytotoxicity assay: % Effect” value was -1.252%. The EC50 in series [4] (LDH: Cytotoxicity assay: EC50) is more than 50.6 µM.
Turning to `CC(=O)N[C@@H](CCCCN=[N+]=[N-])C(=O)NCCC(=O)N[C@@H](CC(C)C)C(=O)N[C@H](C(=O)N[C@@H](Cc1ccccc1)C(=O)N[C@]1(C)CCCCCCC=CCCC[C@@](C)(C(=O)N[C@@H](C)C(=O)N[C@@H](C)C(=O)N[C@@H](C)C(=O)N[C@@H](CCC(=O)O)C(=O)N[C@@H](C)C(=O)N[C@H](C)C(N)=O)NC(=O)[C@H](CC2CCC2)NC(=O)[C@H](CCC(N)=O)NC(=O)[C@H](C)NC(=O)[C@H](Cc2c[nH]c3ccccc23)NC(=O)[C@H](Cc2ccc(O)cc2)NC(=O)[C@H](CCC(=O)O)NC1=O)[C@@H](C)O` [MP-835] (Ac-[Lys(N3)][βAla]LTF[R8]EYWAQ[Cba][S5]AAAEA[dA]-NH2; staple 6-13), the solubility kinetic in series [1] was found to be 162 µM (≈ 361 µg/mL). The compound also returned a logD in series [2] of 2.16. In series [3], the cell entry EC50 came to 0.537 µM. Also, the results for the “LDH: Cytotoxicity assay % Effect” value in the series with HCT116 cells (0% FBS 4Hr) and with HCT116 cells (10% FBS 16Hr) were 3.786% and 22.41%, respectively. Further, the 50% effective concentration (EC50) in series [4] (setting [7]) and in series [4] (setting [8]) was more than 50.7 µM throughout.
With `CC(=O)N[C@@H](CCCCN=[N+]=[N-])C(=O)NCCC(=O)N[C@@H](CC(C)C)C(=O)N[C@H](C(=O)N[C@@H](Cc1ccccc1)C(=O)N[C@]1(C)CCCCCCC=CCCC[C@@](C)(C(=O)N[C@@H](C)C(=O)N[C@@H](CCC(N)=O)C(=O)N[C@@H](C)C(=O)N[C@@H](C)C(=O)N[C@@H](C)C(=O)N[C@H](C)C(N)=O)NC(=O)[C@H](CC2CCC2)NC(=O)[C@H](CCC(N)=O)NC(=O)[C@H](C)NC(=O)[C@H](Cc2c[nH]c3ccccc23)NC(=O)[C@H](Cc2ccc(O)cc2)NC(=O)[C@H](CCC(=O)O)NC1=O)[C@@H](C)O` [MP-966] (Ac-[Lys(N3)][βAla]LTF[R8]EYWAQ[Cba][S5]AQAAA[dA]-NH2; staple 6-13), in series [1], the solubility kinetic is 160 µM (≈ 356 µg/mL). The log distribution coefficient (logD) in series [2] came to 3.07. In addition, the cell entry EC50 in series [3] was found to be 6.1 µM. Further, the entries for the “LDH: Cytotoxicity assay % Effect” value in the series with HCT116 cells (0% FBS 4Hr) and in the series with HCT116 cells (10% FBS 16Hr) were -1.602% and 12.04%, respectively. The EC50 in series [4] (setting [7]) and in series [4] (setting [8]) was more than 50.7 µM throughout.
For the compound `CC(=O)N[C@@H](CCCCN=[N+]=[N-])C(=O)NCCC(=O)N[C@@H](Cc1ccc(S(=O)(=O)O)cc1)C(=O)N[C@H](C(=O)N[C@@H](Cc1ccccc1)C(=O)N[C@]1(C)CCCCCCC=CCCC[C@@](C)(C(=O)N[C@@H](CO)C(=O)N[C@@H](C)C(=O)N[C@@H](C)C(N)=O)NC(=O)[C@H](CC2CCC2)NC(=O)[C@H](CCC(N)=O)NC(=O)[C@H](C)NC(=O)[C@H](Cc2c[nH]c3ccccc23)NC(=O)[C@H](Cc2ccc(O)cc2)NC(=O)[C@H](CCC(=O)O)NC1=O)[C@@H](C)O` [MP-7668] (Ac-[Lys(N3)][βAla][Phe(4-SO3H)]TF[R8]EYWAQ[Cba][S5]SAA-NH2; staple 6-13), in series [1], the solubility kinetic came to 28 µM (≈ 58.4 µg/mL). Besides, in series [2], the logD amounted to 2.31. For the same compound, the cell entry EC50 in series [3] (setting [6]) worked out at 0.406 µM. In the series with HCT116 cells, the “LDH: Cytotoxicity assay: % Effect” value is recorded as 2.173%. This compound had an EC50 in series [4] (LDH: Cytotoxicity assay: EC50) of more than 50.6 µM.

Values taken from publication PMC10786919, “Design-rules for stapled peptides with in vivo activity and their application to Mdm2/X antagonists” (Nature Communications, 2024).
